This is an account of results in the pKa sets of Baltruschat and Czodrowski (2020).

Structures are written as SMILES.

With `Cc1[nH]c2ccccc2c1C1CC[NH+](Cc2ccc(CCC(=O)N=O)cc2)C1` (stereo unspecified), the pKa is 8.59.

The compound `Fc1ccc([C@H]2CC[NH2+]C[C@@H]2COc2ccc3c(c2)OCO3)cc1` yielded a pKa of 9.5.

With `CC(=C(C#N)C#N)c1ccc2cc(N(C)CCF)ccc2c1`, the pKa was 2.4.

The compound `Cc1nc(N2CCN(Cc3ccccc3)C2=O)sc1C(=O)NCc1ccccn1` had a pKa of 4.28.

`CN1c2ccc(C#N)cc2N=C(c2ccc(C(=O)[O-])cc2)c2cc3c(cc21)C(C)(C)CCC3(C)C` gave a pKa of 3.5.

In the case of `CN(n1c(=O)[nH]c2cc(Cl)ccc2c1=O)S(C)(=O)=O`, the pKa was 8.4.
